Test results: patent publication US11344549B2 (priority 2017, dated 2022)

Experiments:
JAK1 kinase = JAK1 kinase (Homo sapiens (Human), UniProt P23458); conditions: read-out: JAK1 IC50
JAK2 kinase = JAK2 kinase (Homo sapiens (Human), UniProt O60674); conditions: read-out: JAK2 IC50
JAK2 kinase, sequence (O60674 826-1132): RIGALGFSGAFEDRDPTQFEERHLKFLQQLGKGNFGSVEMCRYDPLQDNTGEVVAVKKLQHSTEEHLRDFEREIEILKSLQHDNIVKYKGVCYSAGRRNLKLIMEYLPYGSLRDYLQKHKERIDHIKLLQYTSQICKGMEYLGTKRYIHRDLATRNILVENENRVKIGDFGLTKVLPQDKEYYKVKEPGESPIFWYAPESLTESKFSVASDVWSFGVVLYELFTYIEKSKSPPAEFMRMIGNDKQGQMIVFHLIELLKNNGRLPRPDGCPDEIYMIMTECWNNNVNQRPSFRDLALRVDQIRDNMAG

JAK1 kinase, sequence (P23458 850-1154): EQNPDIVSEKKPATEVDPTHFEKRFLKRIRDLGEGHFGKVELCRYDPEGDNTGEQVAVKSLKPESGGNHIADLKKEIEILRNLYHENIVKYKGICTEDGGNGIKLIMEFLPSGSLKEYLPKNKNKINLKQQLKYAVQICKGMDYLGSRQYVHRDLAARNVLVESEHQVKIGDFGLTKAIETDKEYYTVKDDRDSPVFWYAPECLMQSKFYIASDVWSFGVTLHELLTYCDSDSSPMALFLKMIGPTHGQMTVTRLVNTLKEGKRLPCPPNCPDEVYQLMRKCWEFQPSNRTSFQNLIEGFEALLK

SMILES | IC50 (JAK1 kinase) | IC50 (JAK2 kinase)
Cn1cc(Nc2ncc(C(N)=O)c(NCc3ccccc3)n2)cn1 [Example 1, 4-benzylamino-2-((1-methyl-1H-pyrazol-4-yl)amino)pyrimidin-5-carboxamide] | 84.7 nM | 9.5 nM
COc1ccccc1CNc1nc(Nc2cnn(C)c2)ncc1C(N)=O [Example 2, 4-((2-methoxybenzyl)amino)-2-((1-methyl-1H-pyrazol-4-yl)amino)pyrimidin-5-carboxamide] | 2.53 nM | 2.19 nM
COc1cccc(F)c1CNc1nc(Nc2cnn(C)c2)ncc1C(N)=O [Example 3, 4-((2-fluoro-6-methoxybenzyl)amino)-2-((1-methyl-1H-pyrazol-4-yl)amino)pyrimidin-5-carboxamide] | 2.81 nM | 0.57 nM
Cn1cc(Nc2ncc(C(N)=O)c(NCc3c(Cl)cccc3Cl)n2)cn1 [Example 5, 4-((2,6-dichlorobenzyl)amino)-2-((1-methyl-1H-pyrazol-4-yl)amino)pyrimidin-5-carboxamide] | 23.4 nM | –
COCCn1cc(Nc2ncc(C(N)=O)c(NCc3c(F)cccc3F)n2)cn1 [Example 6, 4-((2,6-difluorobenzyl)amino)-2-((1-(2-methoxyethyl)-1H-pyrazol-4-yl)amino)pyrimidin-5-carboxamide] | 29.9 nM | 1.27 nM
COCCn1cc(Nc2ncc(C(N)=O)c(NCc3c(F)cccc3OC)n2)cn1 [Example 7, 4-((2-fluoro-6-methoxybenzyl)amino)-2-((1-(2-methoxyethyl)-1H-pyrazol-4-yl)amino)pyrimidin-5-carboxamide] | 9.18 nM | 1.01 nM
Cn1cc(Nc2ncc(C(N)=O)c(NCCCCCO)n2)cn1 [Example 8, 4-((5-hydroxypentyl)amino)-2-((1-methyl-1H-pyrazol-4-yl)amino)pyrimidin-5-carboxamide] | 80.3 nM | –
CC(=O)N1CCC(CNc2nc(Nc3cnn(C)c3)ncc2C(N)=O)CC1 [Example 11, 4-(((1-acetylpiperidin-4-yl)methyl)amino)-2-((1-methyl-1H-pyrazol-4-yl)amino)pyrimidin-5-carboxamide] | – | 33.3 nM
CC(=O)N1CCC(CCNc2nc(Nc3cnn(C)c3)ncc2C(N)=O)CC1 [Example 12, 4-((2-(1-acetylpiperidin-4-yl)ethyl)amino)-2-((1-methyl-1H-pyrazol-4-yl)amino)pyrimidin-5-carboxamide] | 352 nM | –
CCn1cc(Nc2ncc(C(N)=O)c(NCc3c(F)cccc3F)n2)cn1 [Example 132, 4-[(2,6-difluoro-benzyl)amino]-2-[(1-ethyl-1H-pyrazol-4-yl)amino]pyrimidin-5-carboxamide] | 14.3 nM | 0.51 nM
CC(C)n1cc(Nc2ncc(C(N)=O)c(NCc3c(F)cccc3F)n2)cn1 [Example 133, 4-[(2,6-difluoro-benzyl)amino]-2-[(1-isopropyl-1H-pyrazol-4-yl)amino]pyrimidin-5-carboxamide] | 22.8 nM | 0.47 nM
NC(=O)c1cnc(Nc2cnn(C3CC3)c2)nc1NCc1c(F)cccc1F [Example 134, 4-[(2,6-difluoro-benzyl)amino]-2-[(1-cyclopropyl-1H-pyrazol-4-yl)amino]pyrimidin-5-carboxamide] | – | 1.19 nM
NC(=O)c1cnc(Nc2cnn(C3CCC3)c2)nc1NCc1c(F)cccc1F [Example 135, 4-[(2,6-difluoro-benzyl)amino]-2-[(1-cyclobutyl-1H-pyrazol-4-yl)amino]pyrimidin-5-carboxamide] | 30.3 nM | 0.61 nM
NC(=O)c1cnc(Nc2cnn(C3CCOCC3)c2)nc1NCc1c(F)cccc1F [Example 137, 4-[(2,6-difluoro-benzyl)amino]-2-[[1-(tetra hydro-2H-pyran-4-yl)-1H-pyrazol-4-yl)amino]pyrimidin-5-carboxamide] | 16.4 nM | 0.27 nM
NC(=O)c1cnc(Nc2cnn(CC3CCCO3)c2)nc1NCc1c(F)cccc1F (centres unmarked) [Example 138, 4-[(2,6-difluoro-benzyl)amino]-2-[[1-((tetrahydro-furan-2-yl)methyl)-1H-pyrazol-4-yl]amino]pyrimidin-5-carboxamide] | 88.9 nM | 1.24 nM
CC(C)(O)Cn1cc(Nc2ncc(C(N)=O)c(NCc3c(F)cccc3F)n2)cn1 [Example 145, 4-[(2,6-difluoro-benzyl)amino]-2-[[1-(2-hydroxy-2-methylpropyl)-1H-pyrazol-4-yl]amino]pyrimidin-5-carboxamide] | 20.3 nM | 2.08 nM

SMILES | IC50 (JAK1 kinase) | IC50 (JAK2 kinase)
CCn1cc(Nc2ncc(C(N)=O)c(NCc3c(F)cccc3OC)n2)cn1 [Example 150, 4-[(2-fluoro-6-methoxybenzyl)amino]-2-[(1-ethyl-1H-pyrazol-4-yl)amino]pyrimidin-5-carboxamide] | 3.22 nM | –
COc1cccc(F)c1CNc1nc(Nc2cnn(C(C)C)c2)ncc1C(N)=O [Example 151, 4-[(2-fluoro-6-methoxybenzyl)amino]-2-[(1-isopropyl-1H-pyrazol-4-yl)amino]pyrimidin-5-carboxamide] | 2.77 nM | 0.61 nM
COc1ccccc1CNc1nc(Nc2cnn(CCO)c2)ncc1C(N)=O [Example 172, 4-[(2-methoxybenzyl)amino]-2-[[1-(2-hydroxyethyl)-1H-pyrazol-4-yl]amino]pyrimidin-5-carboxamide] | 15.6 nM | 0.95 nM
Cc1cccc(C)c1CNc1nc(Nc2cnn(CCO)c2)ncc1C(N)=O [Example 174, 4-[(2,6-dimethyl-benzyl)amino]-2-[[1-(2-hydroxy-ethyl)-1H-pyrazol-4-yl]amino]pyrimidin-5-carboxamide] | 54.7 nM | 3.06 nM
C=CCCNc1nc(Nc2cnn(C(C)(C)C)c2)ncc1C(N)=O [Example 228, 4-(but-3-en-1-ylamino)-2-((1-(tert-butyl)-1H-pyrazol-4-yl)amino)pyrimidin-5-carboxamide] | – | 13.9 nM
C=C(C)CNc1nc(Nc2cnn(C(C)(C)C)c2)ncc1C(N)=O [Example 229, 2-((1-tert-butyl-1H-pyrazol-4-yl)amino)-4-((2-methylallyl)amino)pyrimidin-5-carboxamide] | – | 2.8 nM
CC(C)=CCNc1nc(Nc2cnn(C(C)(C)C)c2)ncc1C(N)=O [Example 230, 2-((1-(tert-butyl)-1H-pyrazol-4-yl)amino)-4-((3-methylbut-2-en-1-yl)amino)pyrimidin-5-carboxamide] | 28.1 nM | 1.7 nM
C=C(C)CNc1nc(Nc2cnn(C3CCOCC3)c2)ncc1C(N)=O [Example 232, 4-((2-methylallyl)amino)-2-((1-(tetrahydro-2H-pyran-4-yl)-1H-pyrazol-4-yl)amino)pyrimidin-5-carboxamide] | 34.4 nM | 2 nM
CC(C)=CCNc1nc(Nc2cnn(C3CCOCC3)c2)ncc1C(N)=O [Example 233, 4-((3-methylbut-2-en-1-yl)amino)-2-((1-(tetrahydro-2H-pyran-4-yl)-1H-pyrazol-4-yl)amino)pyrimidin-5-carboxamide] | 6.5 nM | 0.9 nM
C=CCCNc1nc(Nc2cnn(C3CCOCC3)c2)ncc1C(N)=O [Example 234, 4-(but-3-en-1-ylamino)-2-((1-(tetrahydro-2H-pyran-4-yl)-1H-pyrazol-4-yl)amino)pyrimidin-5-carboxamide] | 31 nM | 1.2 nM
CC(C)(C)n1cc(Nc2ncc(C(N)=O)c(NCC3CC=CC3)n2)cn1 [Example 236, 2-((1-(tert-butyl)-1H-pyrazol-4-yl)amino)-4-((cyclopent-3-en-1-ylmethyl)amino)pyrimidin-5-carboxamide] | 7.6 nM | 2.6 nM
C=CCNc1nc(Nc2cnn(C(C)(C)C)c2)ncc1C(N)=O [Example 238, 4-(allylamino)-2-((1-(tert-butyl)-1H-pyrazol-4-yl)amino)pyrimidin-5-carboxamide] | 11.5 nM | 3.6 nM
C=C(C)CCNc1nc(Nc2cnn(C(C)(C)C)c2)ncc1C(N)=O [Example 242, 2-((1-tert-butyl-1H-pyrazol-4-yl)amino)-4-((3-methylbut-3-en-1-yl)amino)pyrimidin-5-carboxamide] | 8 nM | 1.5 nM
C=C(C)CCCNc1nc(Nc2cnn(C(C)(C)C)c2)ncc1C(N)=O [Example 244, 2-((1-tert-butyl-1H-pyrazol-4-yl)amino)-4-((4-methylpent-4-en-1-yl)amino)pyrimidin-5-carboxamide] | 10.8 nM | 3 nM
CC(C)=CCCCNc1nc(Nc2cnn(C(C)(C)C)c2)ncc1C(N)=O [Example 245, 2-((1-tert-butyl-1H-pyrazol-4-yl)amino)-4-((5-methylhex-4-en-1-yl)amino)pyrimidin-5-carboxamide] | 40.8 nM | 16.9 nM
CC(C)C/C=C/CNc1nc(Nc2cnn(C(C)(C)C)c2)ncc1C(N)=O [Example 246, (E)-2-((1-tert-butyl-1H-pyrazol-4-yl)amino)-4-((5-methylhex-2-en-1-yl)amino)pyrimidin-5-carboxamide] | 345 nM | 42.5 nM
